ChEMBL document CHEMBL1201862, “PubChem BioAssay data set” (2004)
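In this assay, cells in 96-well plates receive the compound at five concentrations for 48 hours. Endpoints are linearly interpolated between the surrounding concentrations. GI50: concentration for 50% inhibition of growth.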 Activity calls are given as the source filed them. No stated cut-off is given here; in the data, active = GI50 up to about 1.1 µM and inactive = higher.

Assays:
Assay in all cases: NCI-60 cell line screen, 48 h
[1] = system: LOX IMVI
[2] = system: DMS-114
[3] = system: U-251
[4] = system: SF-268
[5] = system: SK-MEL-28
[6] = system: HOP-62
[7] = system: OVCAR-3
[8] = system: DU-145
[9] = system: HCT-116
[10] = system: PC-3
[11] = system: HCT-15
[12] = system: NCI-H522
[13] = system: MDA-MB-435
[14] = system: A549
[15] = system: SNB-19
[16] = system: IGROV-1
[17] = system: ACHN
[18] = system: MDA-N
[19] = system: K562
[20] = system: EKVX
[21] = system: HL-60
[22] = system: OVCAR-4
[23] = system: KM12
[24] = system: OVCAR-5
[25] = system: HT-29
[26] = system: HCC 2998
[27] = system: SF-539
[28] = system: OVCAR-8
[29] = system: SK-MEL-2
[30] = system: UACC-257
[31] = system: RXF 393
[32] = system: SR
[33] = system: UO-31
[34] = system: MDA-MB-231
[35] = system: LXFL 529
[36] = system: M14
[37] = system: CCRF-CEM
[38] = system: M19-MEL
[39] = system: SNB-75
[40] = system: UACC-62
[41] = system: DMS-273
[42] = system: MCF7
[43] = system: SF-295
[44] = system: COLO 205
[45] = system: DLD-1
[46] = system: SN12C
[47] = system: A498
[48] = system: NCI/ADR-RES
[49] = system: HOP-92
[50] = system: SW-620
[51] = system: NCI-H23
[52] = system: 786-0
[53] = system: NCI-H226
[54] = system: SK-OV-3
[55] = system: RPMI-8226
[56] = system: NCI-H460
[57] = system: SK-MEL-5
[58] = system: TK-10
[59] = system: Malme-3M
[60] = system: CAKI-1
[61] = system: BT-549
[62] = system: T47D
[63] = system: MOLT-4
[64] = system: Hs-578T

`CCN(CC)CCNc1ccc2nc(C)n3c4ccc(OC)cc4c(=O)c1c23` was tested, and the GI50 [1] was 1.15 µM (inactive), the GI50 [2] was 2.58 µM (inactive) and the GI50 [3] was 4.39 µM (inactive). For the same compound, the GI50 [4] was 0.979 µM (active), the GI50 [5] was 10.4 µM (inactive) and the GI50 [6] was 4.06 µM (inactive). The GI50 [7] was 3.14 µM (inactive), the GI50 [8] was 1.29 µM (inactive) and the GI50 [9] was 0.282 µM (active). The GI50 [10] was 0.955 µM (active), the GI50 [11] was 1.22 µM and the GI50 [12] was 0.272 µM (active). For the same compound, the GI50 [13] was 11.2 µM (inactive), the GI50 [14] was 0.668 µM (active) and the GI50 [15] was 1.03 µM (active). The GI50 [16] was 0.494 µM (active), the GI50 [17] was 0.367 µM (active) and the GI50 [18] was 1.41 µM (inactive). The GI50 [19] was 0.401 µM (active), the GI50 [20] was 1.69 µM (inactive) and the GI50 [21] was 1.17 µM (inactive). The GI50 [22] was 1.41 µM (inactive), the GI50 [23] was 1.8 µM (inactive) and the GI50 [24] was 4.82 µM (inactive). For the same compound, the GI50 [25] was 0.323 µM (active), the GI50 [26] was 0.8 µM (active) and the GI50 [27] was 1.91 µM (inactive). For the same compound, the GI50 [28] was 0.575 µM (active), the GI50 [29] was 12.4 µM (inactive) and the GI50 [30] was 8.75 µM (inactive). For the same compound, the GI50 [31] was 4.07 µM (inactive), the GI50 [32] was 0.165 µM (active) and the GI50 [33] was 3.08 µM (inactive). For the same compound, the GI50 [34] was 0.423 µM (active), the GI50 [35] was 1.41 µM (inactive) and the GI50 [36] was 10.5 µM (inactive). The GI50 [37] was 0.126 µM (active), the GI50 [38] was 6.59 µM (inactive) and the GI50 [39] was 4.68 µM (inactive). For the same compound, the GI50 [40] was 4.9 µM (inactive), the GI50 [41] was 0.695 µM (active) and the GI50 [42] was 0.354 µM (active). The GI50 [43] was 0.641 µM (active), the GI50 [44] was 0.693 µM (active) and the GI50 [45] was 0.463 µM (active). For the same compound, the GI50 [46] was 0.546 µM (active), the GI50 [47] was 3.7 µM (inactive) and the GI50 [48] was 0.675 µM (active). The GI50 [49] was 5.92 µM (inactive), the GI50 [50] was 0.711 µM (active) and the GI50 [51] was 2.06 µM (inactive). The GI50 [52] was 0.558 µM (active), the GI50 [53] was 0.316 µM (active) and the GI50 [54] was 5.48 µM (inactive). The GI50 [55] was 1.36 µM (inactive), the GI50 [56] was 0.538 µM (active) and the GI50 [57] was 5.57 µM (inactive). The GI50 [58] was 0.873 µM (active), the GI50 [59] was 5.33 µM (inactive) and the GI50 [60] was 1.86 µM (inactive). For the same compound, the GI50 [61] was 5.31 µM (inactive), the GI50 [62] was 17.8 µM (inactive) and the GI50 [63] was 0.0959 µM (active). For the same compound, the GI50 [64] was 1.04 µM (active).
